Test results from patent US7892754B2, “Hepatitis B virus pre-S1 derived synthetic polypeptides and uses thereof” (priority 2001, dated 2011).
Ends that are not written are not given here. Peptide text beside a SMILES is read from it. * marks the point of attachment. Myristoyl = CCCCCCCCCCCCCC(=O)*

Legend:
[1] = test system: HBV; test: Polypeptide competition assay: inhibition of HBV infection of human hepatocyte cultures, HBsAg ELISA in supernatant; type: cell-based; settings: for effect on HBV infectivity (HBsAg secretion): FIG. 1; for inhibitory activity against HBV infection, comparison of C-terminally truncated peptides: 0.8 to 800 nM
Description: (§1) Fragments of normal adult human liver were obtained from patients undergoing hepatic resection for liver metastases (the fragments were taken at a distance from the metastasis in macroscopically normal liver). Access to this biopsy material was in agreement with French laws and satisfied the requirements of the French National Ethics Committee. Hepatocytes were isolated by the procedure of Guguen-Guillouzo and Guillouzo and cultured in H medium supplemented with 3.5×10^−6 M hydrocortisone hemisuccinate, 2 mM L-glutamine, 50 mg of gentamicin per litre, 2% dimethyl sulfoxide, 5% adult human serum, and 5% FCS. Three days after seeding, the cells were infected.
As an infectious inoculum, a 50-fold concentrated culture medium of HepG2 clone 2.2.15 cells was used, because of an unlimited supply and a constant quality.
It was prepared as described previously. Differentiated cells were incubated with the concentrated infectious source, 10-fold diluted in culture medium supplemented with 5% PEG 8000 (Sigma), for 20 h at 37° C. as described previously (Gripon et al., 1988; Gripon et al., 1993). Control cultures were incubated with 5% PEG and 25% FCS diluted in phosphate-buffered saline (PBS) instead of the infectious source. At the end of the incubation, cells were washed three times with the culture medium and maintained in the presence of 2% DMSO and 5×10^−5 M hydrocortisone hemisuccinate and harvested at indicated times.
(§2) Polypeptide competition assays were performed by pre-incubating cells with the analyzed polypeptide for 30 min, at 37° C., prior to the addition of the infectious source.
HBsAg was detected in the medium by an ELISA kit (Monolisa AgHBs plus) obtained from Bio-Rad Laboratories. Values are expressed in ng/ml of supernatant or percent of control (absence of peptide).

[2] = test system: DHBV; test: In vivo DHBV infection inhibition in ducks (Dot Blot of viral DNA, Western Blot of L protein in serum); settings: for L protein of DHBV in serum (Western Blot): 35 days post-infection, FIG. 6; for viral DNA in serum (Dot Blot): day 28 post-infection; for viral DNA in serum (Dot Blot) / viremia (Dot Blot of viral DNA in serum): FIG. 5; for viremia (Dot Blot of viral DNA in serum): ducks injected simultaneously with DHBV and peptide, days 9 and 15 post-infection
Protocol: Ducks are simultaneously injected with DHBV and duck preS Myr 2-41 (DpreS2-41^myr), heron preS Myr 2-44 (HepreS2-44^myr), human preS Myr 2-68 (HupreS2-68^myr), duck preS Myr 2-21 (DpreS2-21^myr) or ddH2O. The viremia of infected animals is assessed by Dot Blot analysis of viral DNA, 5, 9, 15 and 28 days post-infection.

[3] = test system: DHBV; test: In vitro DHBV infection of primary duck hepatocytes; type: cell-based
[4] = test system: HBV; test: Inhibition of HBV infection of human hepatocytes, RNA analysis (Northern blot); type: cell-based; settings: myristoylation and C-terminal truncation of pre-S1 peptides
Description: as §1
It was prepared as described previously. Differentiated cells were incubated with the concentrated infectious source, 10-fold diluted in culture medium supplemented with 5% PEG 8000 (Sigma), for 20 h at 37° C. as described previously (Gripon et al., 1988; Gripon et al., 1993). […]
as §2
Total cellular RNA was extracted by Total SV RNA kit (Promega, France), fractionated on a 1.5% agarose gel and analyzed by standard Northern blot procedure (Sambrook et al., 1989). […]

[5] = 800 nM, HBsAg 7 days after infection, FIG. 2
[6] = 1 μM peptide, HBsAg 14 days post-infection
[7] = doses lower than 800 nM, FIG. 2
[8] = 8 μM, HBsAg 8 days after infection, FIG. 3
[9] = HBsAg 7 days after infection, FIG. 2

With “HBV Myr PreS 2-78: myristoylated HBV pre-S1 peptide, amino acids 2-78” the “inhibitory activity against HBV infection” value [1, 5] was “very efficient”, the “effect on HBV infectivity (HBsAg secretion)” value (“effect on HBV infectivity” below) [1, 6] was “almost completely abolish it” and the “inhibitory activity against HBV infection” value [1, 7] was “less active”. The “effect on HBV infectivity” value ([1]; lower doses than 1 μM) was “partly inhibitory”.
With “Myristoyl-GLNQSTFNPLGFFPSHQLDPLFKANAGSADWDKNPNKDPWPQAHDTA [WMHBV Myr PreS 2-48]” the “comparative inhibitory activity towards HBV infection of human cells” value ([1]; decreasing peptide concentrations, HBsAg day 10 post-infection, FIG. 4) was “nearly as efficient as the HBV derived peptide”.
`CCCCCCCCCCCCCC(=O)NCC(=O)N[C@@H](CCC(N)=O)C(=O)N[C@@H](CC(N)=O)C(=O)N[C@@H](CC(C)C)C(=O)N[C@@H](CO)C(=O)N[C@H](C(=O)N[C@@H](CO)C(=O)N[C@@H](CC(N)=O)C(=O)N1CCC[C@H]1C(=O)N[C@@H](CC(C)C)C(=O)NCC(=O)N[C@@H](Cc1ccccc1)C(=O)N[C@@H](Cc1ccccc1)C(=O)N1CCC[C@H]1C(=O)N[C@@H](CC(=O)O)C(=O)N[C@@H](Cc1c[nH]cn1)C(=O)N[C@@H](CCC(N)=O)C(=O)N[C@@H](CC(C)C)C(=O)N[C@@H](CC(=O)O)C(=O)N1CCC[C@H]1C(=O)N[C@@H](C)C(=O)N[C@@H](Cc1ccccc1)C(=O)N[C@@H](CCCNC(=N)N)C(=O)N[C@@H](C)C(=O)N[C@@H](CC(N)=O)C(=O)N[C@H](C(=O)N[C@@H](C)C(=O)N[C@@H](CC(N)=O)C(=O)N1CCC[C@H]1C(=O)N[C@@H](CC(=O)O)C(=O)N[C@@H](Cc1c[nH]c2ccccc12)C(=O)N[C@@H](CC(=O)O)C(=O)N[C@@H](Cc1ccccc1)C(=O)N[C@@H](CC(N)=O)C(=O)N1CCC[C@H]1C(=O)N[C@@H](CC(N)=O)C(=O)N[C@@H](CCCCN)C(=O)O)[C@@H](C)O)[C@@H](C)O` [HBV Myr PreS 2-38] was tested, and the “inhibitory activity against HBV infection” value [1, 8] was “almost completely blocks HBV infection”.
In the case of `CCCCCCCCCCCCCC(=O)NCC(=O)N[C@@H](CCC(N)=O)C(=O)N[C@@H](Cc1c[nH]cn1)C(=O)N1CCC[C@H]1C(=O)N[C@@H](C)C(=O)N[C@@H](CCCCN)C(=O)N[C@@H](CO)C(=O)N[C@@H](CCSC)C(=O)N[C@@H](CC(=O)O)C(=O)N[C@H](C(=O)N[C@@H](CCCNC(=N)N)C(=O)N[C@@H](CCCNC(=N)N)C(=O)N[C@H](C(=O)N[C@@H](CCC(=O)O)C(=O)NCC(=O)NCC(=O)N[C@@H](CCC(=O)O)C(=O)N[C@H](C(=O)N[C@@H](CC(C)C)C(=O)N[C@@H](CC(C)C)C(=O)N[C@@H](CC(N)=O)C(=O)N[C@@H](CCC(N)=O)C(=O)N[C@@H](CC(C)C)C(=O)N[C@@H](C)C(=O)NCC(=O)N[C@@H](CCCNC(=N)N)C(=O)N[C@@H](CCSC)C(=O)N[C@H](C(=O)N1CCC[C@H]1C(=O)N[C@@H](CCCCN)C(=O)NCC(=O)N[C@H](C(=O)N[C@@H](CC(C)C)C(=O)N[C@H](C(=O)N[C@@H](Cc1c[nH]c2ccccc12)C(=O)N[C@@H](CO)C(=O)NCC(=O)N[C@@H](CCCCN)C(=O)N[C@@H](Cc1ccccc1)C(=O)N1CCC[C@H]1C(=O)O)[C@@H](C)O)[C@@H](C)O)[C@@H](C)CC)[C@@H](C)CC)[C@@H](C)CC)C(C)C` [DHBV Myr PreS 2-41] (Myristoyl-GQHPAKSMDVRRIEGGEILLNQLAGRMIPKGTLTWSGKFP-OH; C-terminus assumed), the “activity on HBV infection” value ([1]; text summary referring to table 1) is reported as “complete absence of activity”, the “L protein of DHBV in serum (Western Blot)” value [2] is reported as “not detected” and the “viral DNA in serum (Dot Blot)” value [2] is reported as “decreased or no longer detectable”. The “viremia (Dot Blot of viral DNA in serum)” value [2] was “transitory viremia” and the “inhibition of DHBV infection” value [3] was “strong inhibitor”.
For “HBV PreS 1-78: non myristoylated peptide, pre-S1 amino acids 1 to 78 of Hepatitis B virus subtype ayw”, the “effect on HBV infectivity” value [1, 6] was “only a faint effect”.
`CCCCCCCCCCCCCC(=O)NCC(=O)N[C@@H](CCC(N)=O)C(=O)N[C@@H](CC(N)=O)C(=O)N[C@@H](CC(C)C)C(=O)N[C@@H](CO)C(=O)N[C@H](C(=O)N[C@@H](CO)C(=O)N[C@@H](CC(N)=O)C(=O)N1CCC[C@H]1C(=O)N[C@@H](CC(C)C)C(=O)NCC(=O)N[C@@H](Cc1ccccc1)C(=O)N[C@@H](Cc1ccccc1)C(=O)N1CCC[C@H]1C(=O)N[C@@H](CC(=O)O)C(=O)N[C@@H](Cc1c[nH]cn1)C(=O)N[C@@H](CCC(N)=O)C(=O)N[C@@H](CC(C)C)C(=O)N[C@@H](CC(=O)O)C(=O)N1CCC[C@H]1C(=O)N[C@@H](C)C(=O)N[C@@H](Cc1ccccc1)C(=O)N[C@@H](CCCNC(=N)N)C(=O)N[C@@H](C)C(=O)N[C@@H](CC(N)=O)C(=O)N[C@H](C(=O)N[C@@H](C)C(=O)N[C@@H](CC(N)=O)C(=O)N1CCC[C@H]1C(=O)N[C@@H](CC(=O)O)C(=O)N[C@@H](Cc1c[nH]c2ccccc12)C(=O)N[C@@H](CC(=O)O)C(=O)N[C@@H](Cc1ccccc1)C(=O)N[C@@H](CC(N)=O)C(=O)N1CCC[C@H]1C(=O)N[C@@H](CC(N)=O)C(=O)N[C@@H](CCCCN)C(=O)N[C@@H](CC(=O)O)C(=O)N[C@H](C(=O)N[C@@H](Cc1c[nH]c2ccccc12)C(=O)N1CCC[C@H]1C(=O)N[C@@H](CC(=O)O)C(=O)N[C@@H](C)C(=O)N[C@@H](CC(N)=O)C(=O)N[C@@H](CCCCN)C(=O)N[C@H](C(=O)NCC(=O)O)C(C)C)[C@@H](C)O)[C@@H](C)O)[C@@H](C)O` [HBV Myr PreS 2-48] was tested, and the “inhibitory activity against HBV infection, comparison of C-terminally truncated peptides” value [1, 9] was “highest inhibitory activity” and the “inhibitory activity against HBV infection by RNA analysis” value [4] was “highest inhibitory activity”.
With “HBV Myr PreS 2-68: myristoylated HBV pre-S1 peptide, amino acids 2-68” the “inhibitory activity against HBV infection” value [1, 5] was “very efficient”, the “inhibitory activity against HBV infection” value [1, 7] was “less active” and the “infection of ducks with DHBV” value ([2]; FIGS. 5 and 6) was “seems to delay but do not prevent infection”.
In the case of `CCCCCCCCCCCCCC(=O)NCC(=O)N[C@@H](CCC(N)=O)C(=O)N[C@@H](Cc1c[nH]cn1)C(=O)N1CCC[C@H]1C(=O)N[C@@H](C)C(=O)N[C@@H](CCCCN)C(=O)N[C@@H](CO)C(=O)N[C@@H](CCSC)C(=O)N[C@@H](CC(=O)O)C(=O)N[C@H](C(=O)N[C@@H](CCCNC(=N)N)C(=O)N[C@@H](CCCNC(=N)N)C(=O)N[C@H](C(=O)N[C@@H](CCC(=O)O)C(=O)NCC(=O)NCC(=O)N[C@@H](CCC(=O)O)C(=O)N[C@H](C(=O)N[C@@H](CC(C)C)C(=O)N[C@@H](CC(C)C)C(=O)O)[C@@H](C)CC)[C@@H](C)CC)C(C)C` [DpreS2-21^myr] (Myristoyl-GQHPAKSMDVRRIEGGEILL-OH), the “L protein of DHBV in serum (Western Blot)” value [2] is reported as “not detected”, the “viral DNA in serum (Dot Blot)” value [2] is reported as “decreased or no longer detectable” and the “viremia (Dot Blot of viral DNA in serum)” value [2] is reported as “transitory viremia”. For the same compound, the “in vitro inhibitory activity towards DHBV infection” value ([3]; primary duck hepatocytes) was “no in vitro inhibitory activity”.
In the case of `CCCCCCCCCCCCCC(=O)NCC(=O)N[C@@H](CCC(N)=O)C(=O)N[C@@H](CC(N)=O)C(=O)N[C@@H](CC(C)C)C(=O)N[C@@H](CO)C(=O)N[C@H](C(=O)N[C@@H](CO)C(=O)N[C@@H](CC(N)=O)C(=O)N1CCC[C@H]1C(=O)N[C@@H](CC(C)C)C(=O)NCC(=O)N[C@@H](Cc1ccccc1)C(=O)N[C@@H](Cc1ccccc1)C(=O)N1CCC[C@H]1C(=O)N[C@@H](CC(=O)O)C(=O)N[C@@H](Cc1c[nH]cn1)C(=O)N[C@@H](CCC(N)=O)C(=O)N[C@@H](CC(C)C)C(=O)N[C@@H](CC(=O)O)C(=O)N1CCC[C@H]1C(=O)N[C@@H](C)C(=O)N[C@@H](Cc1ccccc1)C(=O)N[C@@H](CCCNC(=N)N)C(=O)N[C@@H](C)C(=O)N[C@@H](CC(N)=O)C(=O)N[C@H](C(=O)N[C@@H](C)C(=O)O)[C@@H](C)O)[C@@H](C)O` [HBV Myr PreS 2-28], the “inhibition of HBV infection” value [1, 5] is reported as 50%, the “inhibitory activity against HBV infection” value [1, 8] is reported as “almost completely blocks HBV infection” and the “inhibitory activity against HBV infection, comparison of C-terminally truncated peptides” value [1, 9] is reported as “largely less active”.
